System: Thymocyte
Test: Inhibition of H2O2-induced cell death of rat thymocyte assessed as cell viability
Assay type: functional, cell-based

SMILES | IC50
COc1cc(/C=C/C(=O)CC(=O)/C=C/c2cc(OC)c(O)c(C(C)/C=C/c3ccc(OC)c(OC)c3)c2)ccc1O (stereo not drawn) [CASSUMUNIN A] | 170 nM
COc1cc(/C=C/C(=O)CC(=O)/C=C/c2cc(OC)c(O)c(C(C)/C=C/c3cc(OC)c(OC)cc3OC)c2)ccc1O (stereo not drawn) [CASSUMUNIN B] | 220 nM
COc1cc(/C=C/C(=O)CC(=O)/C=C/c2ccc(O)c(OC)c2)ccc1O [CURCUMIN] | 1020 nM
